Laboratory results published in ChEMBL document CHEMBL5608205, “Design, synthesis and biological evaluation of novel SIRT3 inhibitors targeting both NAD+ and substrate binding sites for the treatment of acute myeloid leukemia” (Eur J Med Chem, 2024).

Legend:
[1] = target: T1, NAD-dependent protein deacetylase sirtuin-3, mitochondrial (Homo sapiens, UniProt Q9NTG7); test: Inhibition of wild type C-terminal human SIRT3 (118 to […] residues) expressed in Escherichia coli strain BL21DE3 Rosetta2 using Fluor de lys as substrate incubated for 30 mins by fluorescence based analysis
T1 sequence (Q9NTG7 whole entry): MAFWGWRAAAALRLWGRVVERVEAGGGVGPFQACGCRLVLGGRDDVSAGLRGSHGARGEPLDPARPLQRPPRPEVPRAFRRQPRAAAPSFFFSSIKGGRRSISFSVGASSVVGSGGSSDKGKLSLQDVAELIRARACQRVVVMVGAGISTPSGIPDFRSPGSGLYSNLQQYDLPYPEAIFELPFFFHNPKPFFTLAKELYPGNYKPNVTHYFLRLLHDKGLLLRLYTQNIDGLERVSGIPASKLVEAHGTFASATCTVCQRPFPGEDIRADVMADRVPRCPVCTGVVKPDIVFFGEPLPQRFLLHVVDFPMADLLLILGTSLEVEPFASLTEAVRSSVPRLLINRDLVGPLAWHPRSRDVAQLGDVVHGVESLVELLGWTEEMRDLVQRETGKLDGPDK

MOLM-13 [2] = test: cells; conditions: Homo sapiens, MOLM-13, 24 h
HL-60 [3] = test: cells; conditions: Homo sapiens, HL-60, 24 h
MV4-11 [4] = test: cells; conditions: Homo sapiens, MV4-11, 24 h
HL-60 [5] = test: Induction of apoptosis in human HL-60 cells assessed as viable cells at […] incubated for 24 hrs by annexin V/FITC and Propidium Iodide staining based flow cytometry analysis (reference value: 98.9%); type: functional; conditions: dose 2.5 µM, read-out: Activity
MV4-11 [6] = test: Induction of apoptosis in human MV4-11 cells assessed as viable cells at […] incubated for 24 hrs by annexin V/FITC and Propidium Iodide staining based flow cytometry analysis (reference value: 95.4%); type: functional; conditions: dose 2.5 µM, read-out: Activity
[7] = Toxicity in nude mouse assessed as effect on liver at 5 mg/kg, ip administered daily for upto 14 days; type: organism-based; conditions: in vivo, 336 h, time < 14 day
MOLM-13 [8] = test: Induction of apoptosis in human MOLM-13 cells assessed as viable cells at […] incubated for 24 hrs by annexin V/FITC and Propidium Iodide staining based flow cytometry analysis (reference value: 98.1%); type: functional; conditions: dose 2.5 µM, read-out: Activity
[9] = Toxicity in nude mouse assessed as effect on body weight at 5 mg/kg, ip administered daily for upto 14 days; type: organism-based; conditions: in vivo, 336 h, time < 14 day
MV4-11 [10] = test: Induction of apoptosis in human MV4-11 cells assessed as viable cells at 10 uM incubated for 24 hrs by annexin V/FITC and Propidium Iodide staining based flow cytometry analysis (reference value: 95.4%); type: functional; conditions: read-out: Activity
[11] = Toxicity in nude mouse assessed as effect on brain at 5 mg/kg, ip administered daily for upto 14 days; type: organism-based; conditions: in vivo, 336 h, time < 14 day
MV4-11 [12] = test: Induction of apoptosis in human MV4-11 cells assessed as viable cells at 5 uM incubated for 24 hrs by annexin V/FITC and Propidium Iodide staining based flow cytometry analysis (reference value: 95.4%); type: functional; conditions: read-out: Activity
[13] = Toxicity in nude mouse assessed as effect on spleen at 5 mg/kg, ip administered daily for upto 14 days; type: organism-based; conditions: in vivo, 336 h, time < 14 day
[14] = Toxicity in nude mouse assessed as effect on heart at 5 mg/kg, ip administered daily for upto 14 days; type: organism-based; conditions: in vivo, 336 h, time < 14 day
[15] = target: T2, NAD-dependent protein deacetylase sirtuin-2 (Homo sapiens, UniProt Q8IXJ6); test: Inhibition of recombinant human SIRT2 using Fluor de lys as substrate incubated for 30 mins by fluorescence based analysis
T2 sequence (Q8IXJ6 whole entry): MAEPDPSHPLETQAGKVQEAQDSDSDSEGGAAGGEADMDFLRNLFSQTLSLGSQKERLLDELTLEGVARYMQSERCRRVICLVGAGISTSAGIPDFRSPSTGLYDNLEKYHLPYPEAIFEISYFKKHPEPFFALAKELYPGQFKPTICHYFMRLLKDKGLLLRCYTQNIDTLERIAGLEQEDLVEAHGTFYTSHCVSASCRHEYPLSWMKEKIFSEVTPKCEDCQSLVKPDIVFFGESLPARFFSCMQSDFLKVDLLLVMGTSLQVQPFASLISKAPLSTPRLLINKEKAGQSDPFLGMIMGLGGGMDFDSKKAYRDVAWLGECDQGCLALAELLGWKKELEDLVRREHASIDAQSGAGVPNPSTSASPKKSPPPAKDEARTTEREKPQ

[16] = Toxicity in nude mouse assessed as effect on kidney at 5 mg/kg, ip administered daily for upto 14 days; type: organism-based; conditions: in vivo, 336 h, time < 14 day
[17] = Toxicity in nude mouse assessed as effect on lung at 5 mg/kg, ip administered daily for upto 14 days; type: organism-based; conditions: in vivo, 336 h, time < 14 day
HL-60 [18] = test: Induction of apoptosis in human HL-60 cells assessed as viable cells at 5 uM incubated for 24 hrs by annexin V/FITC and Propidium Iodide staining based flow cytometry analysis (reference value: 98.9%); type: functional; conditions: read-out: Activity
MOLM-13 [19] = test: Induction of apoptosis in human MOLM-13 cells assessed as viable cells at 10 uM incubated for 24 hrs by annexin V/FITC and Propidium Iodide staining based flow cytometry analysis (reference value: 98.1%); type: functional; conditions: read-out: Activity
MOLM-13 [20] = test: Induction of apoptosis in human MOLM-13 cells assessed as viable cells at 5 uM incubated for 24 hrs by annexin V/FITC and Propidium Iodide staining based flow cytometry analysis (reference value: 98.1%); type: functional; conditions: read-out: Activity
HL-60 [21] = test: Induction of apoptosis in human HL-60 cells assessed as viable cells at 10 uM incubated for 24 hrs by annexin V/FITC and Propidium Iodide staining based flow cytometry analysis (reference value: 98.9%); type: functional; conditions: read-out: Activity
[22] = target: T2, NAD-dependent protein deacetylase sirtuin-2; test: Inhibition of SIRT2 (unknown origin)
[23] = target: T1, NAD-dependent protein deacetylase sirtuin-3, mitochondrial; test: Inhibition of recombinant human SIRT3 using Fluor de lys as substrate incubated for 30 mins by fluorescence based analysis

| Compound | IC50 (MOLM-13 [2]) [µM] | IC50 (HL-60 [3]) [µM] | IC50 (MV4-11 [4]) [µM] | further results |
| --- | --- | --- | --- | --- |
| Oc1cc(O)cc(/C=C/c2ccc(Br)cc2)c1 |  |  |  | IC50 [1]: 143 µM |
| c1cncc(-c2cnn[nH]2)c1 | 12.6 | > 50 | 27.8 |  |
| C#Cc1cccc(NC(=O)N2C[C@H]3C[C@@H](C2)N3c2ncnc3cc(C(N)=O)sc23)c1 | 33.2 | 38.2 | 28.7 |  |
| NC(=O)c1cc2ncnc(N3[C@@H]4CC[C@H]3CN(C(=O)Nc3ccc(C(F)(F)F)cc3)C4)c2s1 |  |  |  | viability at […] (HL-60 [5]): 84.5%; viability at […] (MV4-11 [6]): 85.7%; Activity [7]: Non-Toxic; viability at […] (MOLM-13 [8]): 90.4%; Activity [9]: Non-Toxic; viability at 10 µM (MV4-11 [10]): 65%; Activity [11]: Non-Toxic; viability at 5 µM (MV4-11 [12]): 78.2%; Activity [13]: Non-Toxic; Activity [14]: Non-Toxic; IC50 [15]: 0.474 µM; Activity [16]: Non-Toxic; Activity [17]: Non-Toxic; viability at 5 µM (HL-60 [18]): 78.2%; viability at 10 µM (MOLM-13 [19]): 62.5%; viability at 5 µM (MOLM-13 [20]): 67.5%; viability at 10 µM (HL-60 [21]): 73% |
| NC(=O)c1cc2ncnc(N3[C@@H]4CC[C@H]3CN(C(=O)Nc3ccc5ccccc5c3)C4)c2s1 | 10.6 | 17.4 | 14.7 |  |
| NC(=O)c1cc2ncnc(N3[C@@H]4C[C@H]3CN(C(=O)Nc3ccc(Cl)c(Cl)c3)C4)c2s1 | 25 | 27.1 | 19.9 |  |
| NC(=O)c1cc2ncnc(N3[C@@H]4C[C@H]3CN(C(=O)Nc3ccccc3Cl)C4)c2s1 | > 50 | > 50 | > 50 |  |
| NC(=O)c1cc2ncnc(N3[C@@H]4C[C@H]3CN(C(=O)Nc3cc(C(F)(F)F)cc(C(F)(F)F)c3)C4)c2s1 | 41.5 | 31.5 | 26.3 |  |
| NC(=O)c1cc2ncnc(N3[C@@H]4C[C@H]3CN(C(=O)Nc3ccc(C(F)(F)F)cc3)C4)c2s1 | 38.3 | 36.6 | 26.3 |  |
| NC(=O)c1cc2ncnc(N3[C@@H]4C[C@H]3CN(C(=O)Nc3ccc(F)cc3F)C4)c2s1 | > 50 | > 50 | > 50 |  |
| CCNC(=S)c1ccc(C(=O)NCCC2CCN(c3ncnc4cc(C(N)=O)sc34)CC2)s1 |  |  |  | IC50 [22]: 0.0027 µM |
| NC(=O)c1cc2ncnc(N3[C@@H]4CC[C@H]3CN(C(=O)Nc3ccc(Cl)c(Cl)c3)C4)c2s1 | 2.35 | 1.15 | 5.09 | IC50 [23]: 0.125 µM |

Further lines, with some results ahead:

| IC50 (MOLM-13 [2]) [µM] | IC50 (HL-60 [3]) [µM] | IC50 (MV4-11 [4]) [µM] | Compound | further results |
| --- | --- | --- | --- | --- |
| 39.8 | > 50 | > 50 | NC(=O)c1cc2ncnc(N3CCN(C(=O)Nc4ccccc4F)CC3)c2s1 |  |
| > 50 | > 50 | > 50 | Cc1ccc(NC(=O)N2C[C@H]3C[C@@H](C2)N3c2ncnc3cc(C(N)=O)sc23)cc1 |  |
| 3.47 | 5.45 | 7.28 | NC(=O)c1cc2ncnc(N3CCN(C(=O)Nc4cc(Cl)cc(Cl)c4)CC3)c2s1 |  |
| 33.1 | > 50 | > 50 | NC(=O)c1cc2ncnc(N3CCN(C(=O)Nc4ccc(F)cc4F)CC3)c2s1 |  |
| 4.26 | 36.3 | 12.3 | NC(=O)c1cc2ncnc(N3CCN(C(=O)Nc4ccc(Cl)cc4)CC3)c2s1 |  |
| 4.73 | 36.9 | 18.1 | Cc1ccc(NC(=O)N2C[C@H]3CC[C@@H](C2)N3c2ncnc3cc(C(N)=O)sc23)cc1 |  |
| 6.27 | 36.3 | 25.7 | Cc1ccc(NC(=O)N2CCN(c3ncnc4cc(C(N)=O)sc34)CC2)cc1 |  |
| 17.7 | 37.1 | 33.3 | NC(=O)c1cc2ncnc(N3CCN(C(=O)NC4CCCCC4)CC3)c2s1 |  |
| 36.1 | > 50 | 34.1 | NC(=O)c1cc2ncnc(N3[C@@H]4C[C@H]3CN(C(=O)Nc3cccc(Cl)c3)C4)c2s1 |  |
